According to patent publication US8232289B2, “Spiropiperidine compounds as ORL-1 receptor antagonists” (Eli Lilly and Company, priority 2009, dated 2012):
Like-named read-outs stand apart in the source and are kept apart here. Marks after values point to notes of the source that are not given here. Blank lines part the entries; values can stand above or below the molecule they belong to.

What was measured:
[1] = target: T1, human ORL1 receptors (Homo sapiens, UniProt P41146); experiment: [3H]-OFQ/nociceptin receptor binding assay
T1 construct: expressed in transfected cells; host or cells: CHO cells (membranes)
T1 sequence (P41146 whole entry): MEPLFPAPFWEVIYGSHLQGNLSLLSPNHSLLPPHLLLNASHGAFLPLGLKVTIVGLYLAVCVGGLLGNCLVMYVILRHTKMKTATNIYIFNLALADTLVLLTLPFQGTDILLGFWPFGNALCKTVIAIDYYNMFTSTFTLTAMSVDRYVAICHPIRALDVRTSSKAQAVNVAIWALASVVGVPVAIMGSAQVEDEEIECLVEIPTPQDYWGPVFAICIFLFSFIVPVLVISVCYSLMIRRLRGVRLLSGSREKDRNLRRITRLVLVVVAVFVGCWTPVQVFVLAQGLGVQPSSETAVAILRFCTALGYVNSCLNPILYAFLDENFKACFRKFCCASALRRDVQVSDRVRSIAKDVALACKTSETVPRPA
Description: Radioligand binding assays are commonly used to determine the affinity (Ki) or potency of a compound to bind to a particular receptor or target protein. A filtration-based [3H]-OFQ/nociceptin receptor binding assay is developed based on previous assay formats (Ardati A, Henningsen R A, Higelin J, Reinscheid R K, Civelli O, Monsma F J Jr. Mol. Pharmacol. 1997 May; 51(5):816-24.) with minor modifications. [3H]-OFQ/nociceptin binding assays are carried out in deep-well 96-well plates. [^3H]OFQ (final assay concentration 0.2 nM) competition studies are carried out with 5-10 μg of membrane protein (isolated from Chinese hamster ovary cells (CHO cells) expressing cloned human ORL1 receptors) in a final assay volume of 0.5 mL of buffer containing 20 mM HEPES, pH 7.4, 5 mM MgCl2, 1 mM EGTA, 100 mM NaCl, 0.1% bovine serum albumin. Samples are incubated for 60 min. at room temperature, which is found to be optimal for competition assays. The assays are terminated by filtration through glass fiber filters (Wallac filtermat A) [pretreated with 0.3% polyethylenimine (Sigma) for 1 hr] on a Tometc cell harvester, and the filters are washed three times with 5 mL of ice-cold 50 mM Tris.HCl, pH 7.4. Filtermats are then dried and imbedded with Meltilex scintillant A and the radioactivity counted in a Wallac Microbeta scintillation counter. Specific binding is determined by displacement with 100 nM unlabeled nociceptin. Curves are plotted as the percent of specific binding and IC50 values are determined using a sigmoidal dose response curve with variable slope. Ki values are calculated from the IC50 by the equation of Cheng and Prusoff (Cheng, Y. C., and Prusoff, W. H., Biochem. Pharmacol. 22, 3099-3108 (1973)) where Ki=IC50×(1+D×Kd^−1)^−1.

[2] = system: male NIH-Swiss mice; experiment: Forced-swim test in mice (mFST); format: in vivo; settings: for ED60 in mFST: immobilization time; for maximum effect, reduction in immobilization time: mouse, in vivo
Source text: mFST is an established in vivo assay for antidepressant activity (Li et al. J Pharmacol Exp Ther. 319(1):254-9, 2006.). […] The mFST was used to evaluate potential antidepressant-like activity of novel nociceptin/ORL1 antagonists according to previously published methods (Li et al. J Pharmacol Exp Ther. 319(1):254-9, 2006.). Briefly, male NIH-Swiss mice (Harlan Sprague-Dawley, Indianapolis, Ind.) weighing between 25-30 g are used. Group housed animals are removed from the vivarium to the testing area in their own cages and allowed to adapt to the new environment for at least 1 hour before testing. Alternatively, male 129S6 wild type and nociceptin/ORL1 receptor knockout mice were used to confirm dependence of the response to compound was nociceptin/ORL1 receptor dependent. All compounds are prepared in 20% Captisol, 25 mM phosphate buffer, pH 2.0 on the day of use. Mice are placed in a cylinder (diameter: 10 cm; height: 25 cm) filled with 6 cm of water (22-25° C.) for 6 min. The duration of immobility during the last 4 min. of the 6 min. period of the test was scored. A mouse is recorded as immobile when floating motionless or making only those movements necessary to keep its head above water.

[3] = target: Adrenergic Beta2 (Homo sapiens, UniProt P07550); experiment: Radioligand binding selectivity, Adrenergic Beta2
Sequence of Adrenergic Beta2 (P07550 whole entry): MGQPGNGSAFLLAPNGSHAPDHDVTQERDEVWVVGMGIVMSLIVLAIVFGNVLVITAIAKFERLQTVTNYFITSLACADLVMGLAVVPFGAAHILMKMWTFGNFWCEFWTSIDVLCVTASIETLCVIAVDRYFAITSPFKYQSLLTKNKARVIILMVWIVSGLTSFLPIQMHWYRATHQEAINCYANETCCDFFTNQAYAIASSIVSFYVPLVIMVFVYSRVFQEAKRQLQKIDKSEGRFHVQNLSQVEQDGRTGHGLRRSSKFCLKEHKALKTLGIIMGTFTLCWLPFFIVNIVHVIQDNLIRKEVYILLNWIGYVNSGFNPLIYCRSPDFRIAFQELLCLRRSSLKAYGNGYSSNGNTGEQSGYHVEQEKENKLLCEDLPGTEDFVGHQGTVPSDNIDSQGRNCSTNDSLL
Source text: (§1) Similarly, Ki for the mu, kappa and delta opioids, serotonin, dopamine, adrenergic, mucarinic, and histamine receptors, as well as binding to the norepinephrine transporter, sodium channel, chloride channel, and calcium channel may be determined using membranes expressing the desired receptor/transporter/channels and appropriate corresponding radioligand competitor molecules.

[4] = target: D1 Dopamine (Homo sapiens, UniProt P21728); experiment: Radioligand binding selectivity, D1 Dopamine
Sequence of D1 Dopamine (P21728 whole entry): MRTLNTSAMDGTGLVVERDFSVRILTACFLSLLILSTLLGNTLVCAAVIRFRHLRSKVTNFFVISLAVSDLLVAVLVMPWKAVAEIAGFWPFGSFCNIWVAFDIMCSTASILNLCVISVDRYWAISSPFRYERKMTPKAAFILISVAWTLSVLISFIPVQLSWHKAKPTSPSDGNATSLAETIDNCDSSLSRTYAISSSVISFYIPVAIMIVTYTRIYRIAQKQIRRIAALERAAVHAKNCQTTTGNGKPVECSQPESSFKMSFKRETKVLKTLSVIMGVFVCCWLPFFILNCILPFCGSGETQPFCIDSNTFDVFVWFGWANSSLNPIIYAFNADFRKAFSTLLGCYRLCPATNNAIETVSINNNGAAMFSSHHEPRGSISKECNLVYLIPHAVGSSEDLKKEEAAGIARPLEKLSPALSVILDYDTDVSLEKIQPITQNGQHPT
Source text: as §1

[5] = target: 5-HT1A (Homo sapiens, UniProt P08908); experiment: Radioligand binding selectivity, 5-HT1A
Sequence of 5-HT1A (P08908 whole entry, species assumed): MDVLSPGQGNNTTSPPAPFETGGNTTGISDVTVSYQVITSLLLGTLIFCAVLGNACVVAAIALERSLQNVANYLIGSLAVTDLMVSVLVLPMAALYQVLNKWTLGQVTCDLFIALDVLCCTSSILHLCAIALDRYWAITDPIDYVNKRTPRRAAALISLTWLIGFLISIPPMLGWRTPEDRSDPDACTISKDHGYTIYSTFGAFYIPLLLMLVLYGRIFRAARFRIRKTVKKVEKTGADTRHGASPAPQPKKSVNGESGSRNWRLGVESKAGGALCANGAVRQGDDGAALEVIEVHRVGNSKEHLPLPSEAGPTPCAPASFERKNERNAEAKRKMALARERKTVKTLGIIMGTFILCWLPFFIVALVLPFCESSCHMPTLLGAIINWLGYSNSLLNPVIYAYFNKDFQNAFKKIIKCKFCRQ
Source text: as §1

[6] = target: 5-HT1F (Homo sapiens, UniProt P30939); experiment: Radioligand binding selectivity, 5-HT1F
Source text: as §1

[7] = target: Ca+2 channel (verapamil site); experiment: Radioligand binding selectivity, Ca+2 channel (verapamil site)
Source text: as §1

[8] = target: 5-HT1D (Homo sapiens, UniProt P28221); experiment: Radioligand binding selectivity, 5-HT1D
Sequence of 5-HT1D (P28221 whole entry, species assumed): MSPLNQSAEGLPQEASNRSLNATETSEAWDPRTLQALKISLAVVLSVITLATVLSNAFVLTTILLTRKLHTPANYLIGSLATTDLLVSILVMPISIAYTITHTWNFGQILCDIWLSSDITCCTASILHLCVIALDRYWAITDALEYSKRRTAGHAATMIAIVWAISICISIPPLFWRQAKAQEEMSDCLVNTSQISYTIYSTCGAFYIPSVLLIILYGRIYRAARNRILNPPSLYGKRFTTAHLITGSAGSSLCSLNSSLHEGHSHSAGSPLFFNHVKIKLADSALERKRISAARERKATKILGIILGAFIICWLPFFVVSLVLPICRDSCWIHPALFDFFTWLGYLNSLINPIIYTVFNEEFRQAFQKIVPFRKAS
Source text: as §1

[9] = target: Adrenergic Alpha2; experiment: Radioligand binding selectivity, Adrenergic Alpha2
Source text: as §1

[10] = target: 5-HT1B (Homo sapiens, UniProt P28222); experiment: Radioligand binding selectivity, 5-HT1B
Sequence of 5-HT1B (P28222 whole entry, species assumed): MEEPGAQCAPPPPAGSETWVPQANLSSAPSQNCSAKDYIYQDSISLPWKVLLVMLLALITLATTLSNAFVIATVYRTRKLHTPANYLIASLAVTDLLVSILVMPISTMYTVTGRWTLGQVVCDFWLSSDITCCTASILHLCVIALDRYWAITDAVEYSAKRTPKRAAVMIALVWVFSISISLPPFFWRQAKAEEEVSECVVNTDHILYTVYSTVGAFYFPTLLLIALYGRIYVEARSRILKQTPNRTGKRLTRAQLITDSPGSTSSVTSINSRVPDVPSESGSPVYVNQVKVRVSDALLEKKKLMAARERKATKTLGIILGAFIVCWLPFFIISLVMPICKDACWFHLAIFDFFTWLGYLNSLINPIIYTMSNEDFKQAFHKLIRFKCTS
Source text: as §1

[11] = target: Muscarinic M2 (Homo sapiens, UniProt P08172); experiment: Radioligand binding selectivity, Muscarinic M2
Source text: as §1

[12] = target: 5-HT4 (Homo sapiens, UniProt Q13639); experiment: Radioligand binding selectivity, 5-HT4
Sequence of 5-HT4 (Q13639 whole entry, species assumed): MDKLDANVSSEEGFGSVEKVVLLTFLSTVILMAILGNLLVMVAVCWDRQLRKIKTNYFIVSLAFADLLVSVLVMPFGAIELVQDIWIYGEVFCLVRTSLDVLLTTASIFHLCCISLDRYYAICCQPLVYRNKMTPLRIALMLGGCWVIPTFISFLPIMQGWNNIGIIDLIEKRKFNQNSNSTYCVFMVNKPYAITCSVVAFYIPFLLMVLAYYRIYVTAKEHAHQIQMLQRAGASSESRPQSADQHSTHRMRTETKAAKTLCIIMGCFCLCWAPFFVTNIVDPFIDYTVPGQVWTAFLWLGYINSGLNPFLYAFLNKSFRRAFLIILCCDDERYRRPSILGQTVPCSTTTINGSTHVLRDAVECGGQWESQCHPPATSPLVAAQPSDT
Source text: as §1

[13] = target: 5-HT2C (Homo sapiens, UniProt P28335); experiment: Radioligand binding selectivity, 5-HT2C
Source text: as §1

[14] = target: 5-HT2B (Homo sapiens, UniProt P41595); experiment: Radioligand binding selectivity, 5-HT2B
Source text: as §1

[15] = target: 5-HT1E (Homo sapiens, UniProt P28566); experiment: Radioligand binding selectivity, 5-HT1E
Source text: as §1

[16] = target: Adenosine A3 (Homo sapiens, UniProt P0DMS8); experiment: Radioligand binding selectivity, Adenosine A3
Sequence of Adenosine A3 (P0DMS8 whole entry): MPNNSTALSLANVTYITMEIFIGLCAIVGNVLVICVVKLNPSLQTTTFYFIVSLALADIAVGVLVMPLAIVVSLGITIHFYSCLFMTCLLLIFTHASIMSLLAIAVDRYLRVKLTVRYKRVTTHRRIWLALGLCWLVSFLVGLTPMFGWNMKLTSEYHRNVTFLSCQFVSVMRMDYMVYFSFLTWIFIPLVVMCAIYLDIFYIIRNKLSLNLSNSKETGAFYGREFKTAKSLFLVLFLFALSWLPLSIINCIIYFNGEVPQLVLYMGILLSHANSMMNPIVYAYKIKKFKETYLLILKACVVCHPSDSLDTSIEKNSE

[17] = target: Adrenergic Beta1 (Homo sapiens, UniProt P08588); experiment: Radioligand binding selectivity, Adrenergic Beta1
Sequence of Adrenergic Beta1 (P08588 whole entry): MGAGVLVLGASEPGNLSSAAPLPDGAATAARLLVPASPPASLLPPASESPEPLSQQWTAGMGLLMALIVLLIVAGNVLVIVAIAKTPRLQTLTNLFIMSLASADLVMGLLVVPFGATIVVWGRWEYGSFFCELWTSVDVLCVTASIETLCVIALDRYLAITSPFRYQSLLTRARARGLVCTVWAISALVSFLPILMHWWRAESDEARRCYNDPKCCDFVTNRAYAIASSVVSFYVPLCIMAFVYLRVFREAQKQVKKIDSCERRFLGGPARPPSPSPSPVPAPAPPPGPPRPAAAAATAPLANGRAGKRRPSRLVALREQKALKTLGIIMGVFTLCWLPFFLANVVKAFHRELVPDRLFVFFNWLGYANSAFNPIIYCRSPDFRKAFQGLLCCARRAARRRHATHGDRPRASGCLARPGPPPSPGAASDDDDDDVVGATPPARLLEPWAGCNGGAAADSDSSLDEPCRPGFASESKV
Source text: as §1

[18] = target: 5-HT5 (Homo sapiens, UniProt P47898); experiment: Radioligand binding selectivity, 5-HT5
Source text: as §1

[19] = target: Norepinephrine transporter (Homo sapiens, UniProt P23975); experiment: Radioligand binding selectivity, Norepinephrine transporter
Sequence of Norepinephrine transporter (P23975 whole entry, species assumed): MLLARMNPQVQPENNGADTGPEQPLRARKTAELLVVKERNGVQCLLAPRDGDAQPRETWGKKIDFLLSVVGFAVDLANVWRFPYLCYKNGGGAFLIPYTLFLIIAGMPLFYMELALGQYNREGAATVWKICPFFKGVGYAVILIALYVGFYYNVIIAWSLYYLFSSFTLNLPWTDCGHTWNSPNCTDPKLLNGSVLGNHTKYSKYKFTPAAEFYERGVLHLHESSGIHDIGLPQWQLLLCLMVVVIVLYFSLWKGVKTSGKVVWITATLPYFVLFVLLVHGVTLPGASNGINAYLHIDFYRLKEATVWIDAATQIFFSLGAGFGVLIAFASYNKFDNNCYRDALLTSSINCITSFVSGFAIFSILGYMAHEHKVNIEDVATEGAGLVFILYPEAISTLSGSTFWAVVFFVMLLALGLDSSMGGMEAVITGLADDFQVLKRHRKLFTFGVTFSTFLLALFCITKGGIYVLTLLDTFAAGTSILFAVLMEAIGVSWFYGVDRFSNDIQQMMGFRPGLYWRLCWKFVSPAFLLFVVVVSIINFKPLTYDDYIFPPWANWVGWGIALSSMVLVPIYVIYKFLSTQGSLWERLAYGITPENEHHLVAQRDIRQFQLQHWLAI
Source text: as §1

[20] = target: 5-HT2A (Homo sapiens, UniProt P28223); experiment: Radioligand binding selectivity, 5-HT2A
Source text: as §1

[21] = target: D2 Dopamine (Homo sapiens, UniProt P14416); experiment: Radioligand binding selectivity, D2 Dopamine
Sequence of D2 Dopamine (P14416 whole entry): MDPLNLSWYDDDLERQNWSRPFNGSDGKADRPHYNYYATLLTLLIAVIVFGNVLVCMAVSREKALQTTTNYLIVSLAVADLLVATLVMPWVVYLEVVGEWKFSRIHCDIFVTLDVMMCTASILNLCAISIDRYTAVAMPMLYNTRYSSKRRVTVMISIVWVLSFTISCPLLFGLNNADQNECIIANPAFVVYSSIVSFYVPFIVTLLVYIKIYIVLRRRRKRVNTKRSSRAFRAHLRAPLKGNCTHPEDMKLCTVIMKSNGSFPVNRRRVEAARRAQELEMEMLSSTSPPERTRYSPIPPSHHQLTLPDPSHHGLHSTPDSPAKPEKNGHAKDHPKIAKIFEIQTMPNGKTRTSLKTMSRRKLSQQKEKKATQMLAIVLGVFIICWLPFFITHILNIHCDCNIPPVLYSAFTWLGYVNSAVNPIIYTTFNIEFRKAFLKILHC
Source text: as §1

Compound: Cc1nn(-c2ncccc2Cn2cccn2)cc1CN1CCC2(CC1)OCC(F)(F)c1cc(Cl)sc12.O=C(O)C(O)C(O)C(=O)O [Example 23, 2-Chloro-4,4-difluoro-1′-[[3-methyl-1-[3-(pyrazol-1-ylmethyl)-2-pyridyl]pyrazol-4-yl]methyl]spiro[5H-thieno[2,3-c]pyran-7,4′-piperidine] (L)-Tartrate]
Ki [1]: 0.00079 µM
ED60 in mFST [2]: 9.5 mg/kg
maximum effect, reduction in immobilization time [2]: 58%

Compound: O=C(O)C(O)C(O)C(=O)O.OCc1nn(-c2ncccc2F)cc1CN1CCC2(CC1)OCC(F)(F)c1cc(Cl)sc12 [Example 53, [4-[(2-Chloro-4,4-difluoro-spiro[5H-thieno[2,3-c]pyran-7,4′-piperidine]-1′-yl)methyl]-1-(3-fluoro-2-pyridyl)pyrazol-3-yl]methanol (L)-Tartrate]
Ki [3]: > 5 µM
Ki [4]: > 5 µM
Ki [5]: > 3.18 µM
Ki [6]: > 8.52 µM
Ki [7]: > 5 µM
Ki [1]: 0.00045 µM
Ki [8]: > 8.55 µM
Ki [9]: > 5 µM
Ki [10]: > 3.58 µM
Ki [11]: > 5 µM
Ki [12]: > 4.12 µM
Ki [13]: > 5.65 µM
Ki [14]: 0.22 µM
Ki [15]: > 5.37 µM
Ki [16]: > 5 µM
Ki [17]: > 5 µM
Ki [18]: > 9.09 µM
ED60 in mFST [2]: 12.9 mg/kg
maximum effect, reduction in immobilization time [2]: 54%
Ki [19]: > 0.5 µM
Ki [20]: > 5 µM
Ki [21]: > 5 µM

Ki [3]: > 5 µM
Ki ([4]; read-out: Ki D1 Dopamine): > 5 µM
Ki ([5]; read-out: Ki 5-HT1A): > 3.18 µM
Ki ([6]; read-out: Ki 5-HT1F): > 8.52 µM
Ki [7]: > 0.5 µM
Ki ([1]; [3H]OFQ 0.2 nM, CHO cell membranes, read-out: Ki ORL-1): 0.00018 µM
Ki ([8]; read-out: Ki 5-HT1D): > 8.55 µM
Ki [9]: > 5 µM
Ki ([10]; read-out: Ki 5-HT1B): > 3.58 µM
Ki ([11]; read-out: Ki Muscarinic M2): > 0.5 µM
Ki ([12]; read-out: Ki 5-HT4): > 4.12 µM
Ki ([13]; read-out: Ki 5-HT2C): > 5.65 µM
Ki ([14]; read-out: Ki 5-HT2B): 0.693 µM
Ki ([15]; read-out: Ki 5-HT1E): > 5.37 µM
Ki [16]: > 5 µM
Ki [17]: > 5 µM
Ki ([18]; read-out: Ki 5-HT5): > 9.09 µM
Ki ([19]; read-out: Ki Norepinephrine transporter): > 0.5 µM
Ki ([20]; read-out: Ki 5-HT2A): > 5 µM
Ki ([21]; read-out: Ki D2 Dopamine): > 5 µM
Compound: Cc1nn(-c2ncccc2CO)cc1CN1CCC2(CC1)OCC(F)(F)c1cc(Cl)sc12 [Example 62, [2-[4-[(2-Chloro-4,4-difluoro-spiro[5H-thieno[2,3-c]pyran-7,4′-piperidine]-1′-yl)methyl]-3-methyl-pyrazol-1-yl]-3-pyridyl]methanol]
Immobilization Time ([2]; 3 mg/Kg Ex. 62 + 10 mg/Kg fluoxetine): 97* sec
Immobilization Time ([2]; 3 mg/Kg, alone): 163 s
Immobilization Time ([2]; 10 mg/Kg Ex. 62 + 10 mg/Kg fluoxetine): 85* sec
Immobilization Time ([2]; 10 mg/Kg, alone): 129 s
ED60 in mFST [2]: 24.9 mg/kg
effect on immobilization time in combination with fluoxetine ([2]; in combination with 10 mg/kg fluoxetine): significantly further reduce immobilization time over either fluoxetine or the compound of Example 62 alone
maximum effect, reduction in immobilization time [2]: 45%
